The values that follow come from patent publication EP0982317A1, “Bivalent inhibitors of the proteasome” (Max-Planck-Gesellschaft zur Förderung der Wissenschaften …, priority 1998, dated 2000).

Holding throughout (assay type): biochemical
Assay [1] has as its target T1, yeast proteasome β5/β5' (chymotrypsin-like activity) (Saccharomyces cerevisiae, UniProt P30656). Kind of assay: Proteasome assay, chymotrypsin-like activity (fluorogenic substrate Suc-Leu-Leu-Val-Tyr-AMC). More on the design: Three of the seven different β-type subunits are processed at the threonine-1 residue. The conditions noted are these: 1.11 nM proteasome, Tris-buffer pH 7.5, incubated with inhibitor 1 h at 37°C, Suc-Leu-Leu-Val-Tyr-AMC 8 µM, read-out: Inhibition of yeast proteasome (IC50) β5/β5'. On the procedure:
(§1) A solution of proteasome from Saccharomyces cerivisiae in Tris-buffer (pH 7.5; 450 µl; 6.67 nM for PGPH, 5.56 nM for trypsin-like and 1.11 nM for chymotrypsin-like activity) was incubated with the inhibitors at varying concentrations ([…]) for 1 h at 37°C. The fluorogenic substrates for PGPH (Z-Leu-Leu-Gly-βNA, 40 µM), trypsin-like (Bz-Phe-Val-Arg-AMC, 8 µM) and chymotrypsin-like assays (Suc-Leu-Leu-Val-Tyr-AMC, 8 µM) were dissolved in the same Tris-buffer with a minimum amount of DMSO and added to the enzyme solution at 37 °C to reach a final volume of 500 µl. Fluorescence excitation/emission wavelengths were 360 nm/460 nm for AMC and 335 nm/410 nm for βNA. The rates of hydrolysis were monitored by the fluorescence increase and the initial linear portions of curves (100-300 sec) were used to calculate the IC50 values.

For assay [2], the target named is T2, yeast proteasome β2/β2' (trypsin-like activity) (Saccharomyces cerevisiae, UniProt P25043). Kind of assay: Proteasome assay, trypsin-like activity (fluorogenic substrate Bz-Phe-Val-Arg-AMC). More on the design: Three of the seven different β-type subunits are processed at the threonine-1 residue. The following applies: 5.56 nM proteasome, Tris-buffer pH 7.5, incubated with inhibitor 1 h at 37°C, Bz-Phe-Val-Arg-AMC 8 µM, read-out: Inhibition of yeast proteasome (IC50) β2/β2'. On the procedure: as §1

Assay [3] deals with T3, yeast proteasome β1/β1' (PGPH) (Saccharomyces cerevisiae, UniProt P38624). Kind of assay: Proteasome assay, PGPH activity (fluorogenic substrate Z-Leu-Leu-Gly-βNA). The following applies: 6.67 nM proteasome, Tris-buffer pH 7.5, incubated with inhibitor 1 h at 37°C, Z-Leu-Leu-Gly-βNA 40 µM, read-out: Inhibition of yeast proteasome (IC50) β1/β1'. How it is done: as §1
The target in assay [4] is T3, yeast proteasome β1/β1' (PGPH). Described as above. Also on record: endogenous in cells; host or cells: Saccharomyces cerevisiae (isolated native complex; purification, strain and supplier not described). The conditions noted are these: 6.67 nM proteasome, Tris-buffer pH 7.5, incubated with inhibitor 1 h at 37°C, Z-Leu-Leu-Gly-βNA 40 µM, read-out: Inhibition of yeast proteasome (IC50) β1/β1'. How it is done: as §1

The target of assay [5] is T2, yeast proteasome β2/β2' (trypsin-like activity). Kind of assay: Proteasome assay, trypsin-like activity (fluorogenic substrate Bz-Phe-Val-Arg-AMC). The conditions noted are these: 5.56 nM proteasome, Tris-buffer pH 7.5, incubated with inhibitor 1 h at 37°C, Bz-Phe-Val-Arg-AMC 8 µM, read-out: Inhibition of yeast proteasome (IC50) β2/β2'. More on the design: endogenous in cells; host or cells: Saccharomyces cerevisiae (isolated native complex; purification, strain and supplier not described). How it is done:
as §1

In assay [6] the target is T1, yeast proteasome β5/β5' (chymotrypsin-like activity). Kind of assay: Proteasome assay, chymotrypsin-like activity (fluorogenic substrate Suc-Leu-Leu-Val-Tyr-AMC). Also on record: endogenous in cells; host or cells: Saccharomyces cerevisiae (isolated native complex; purification, strain and supplier not described). The following applies: for IC50: chymotrypsin-like activity, 1.11 nM proteasome, Tris-buffer pH 7.5, incubated with inhibitor 1 h at 37°C, Suc-Leu-Leu-Val-Tyr-AMC 8 µM, read-out: Inhibition of yeast proteasome (IC50) β5/β5'. On the procedure:
as §1

Where two headings read alike, the source gives them in different places. Where a SMILES comes first, the peptide text is derived from it. [ ]: non-standard residue; d: D form. Nle = CCCC[C@H](N)C(=O)O

`CCCC[C@@H](C=O)NC(=O)[C@H](CC(C)C)NC(=O)[C@H](CC(C)C)NC(C)=O` [Inhibitor 1, Ac-Leu-Leu-Nle-H] (Ac-Leu-Leu-[Nle]-aldehyde): the IC50 in assay [1] was 2.1 µM; in assay [2] it was > 100 µM; in assay [3], > 100 µM.

Turning to “(PEG)18-25-[NH-CO-(CH2)2-CO-Leu-Leu-Nle-H]2 [Inhibitor 3]”, the IC50 is > 100 µM in assay [4], > 100 µM in assay [5] and 0.017 µM in assay [6]. Also, in assay [6] (chymotryptic activity, compared to inhibitor 1 or to the monovalent inhibitor 2), the “increase in binding affinity” value was “about two orders of magnitude”.

As to “HOOC-(CH2)2-CO-NH-(PEG)18-25-NH-(CH2)2-CO-Leu-Leu-Nle-H [Inhibitor 2]”, the results for the IC50 in assay [4], in assay [5] and in assay [6] were > 100 µM, > 100 µM and 1.8 µM, respectively.
